# Assay results: the supplement of paper PMC10331698
# ± gives the standard deviation of the averaged measurements.
# Assays:
# Assay in all cases: level (log10 ratio to DMSO vehicle control); higher = higher biomarker level / cell amount than vehicle control
# Conditions in all cases: in DMSO
# [1] = compound: C=CC(F)(F)C(F)(F)C(F)(F)C(F)(F)C(F)(F)C(F)(F)C(F)(F)C(F)(F)C=C [1,8-Divinylperfluorooctane]
# Protocol: (§1)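 BioMAP Diversity Plus panel of 12 human primary cell co-culture systems (3C, 4H, LPS, SAg, BT, BF4T, BE3C, CASM3C, HDF3CGF, KF3CT, MyoF, Mphg). Compounds were added 1 h before stimulation and left for 24 h (MyoF 48 h; BT 72 h for soluble read-outs or 6 d for IgG). Biomarkers were read by ELISA, cytotoxicity by SRB, PBMC viability and proliferation by Alamar Blue. Each well value was divided by the mean of 8 DMSO control wells on the same plate and log10 transformed; duplicate blinded samples were tested at 4 concentrations.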
# [2] = compound: FC(F)(F)C(F)(F)C(F)(F)C(F)(F)C(F)(F)CCI [1-Iodo-1H,1H,2H,2H-perfluoroheptane]
# Protocol: as §1
# [3] = compound: NCC(F)(F)C(F)(F)C(F)(F)C(F)(F)C(F)(F)C(F)(F)C(F)(F)F [1H,1H-Perfluorooctylamine]
# Protocol: as §1
# Perfluorobutanoic acid = compound: O=C(O)C(F)(F)C(F)(F)C(F)(F)F [Perfluorobutanoic acid]
# Protocol: as §1
# [4] = compound: O=C(O)C(F)(F)OC(F)(F)C(F)(F)OC(F)(F)C(=O)O [Perfluoro-3,6-dioxaoctane-1,8-dioic acid]
# Protocol: as §1
# [5] = compound: O=S(=O)(O)C(F)(F)C(F)(F)C(F)(F)C(F)(F)C(F)(F)C(F)(F)F [Perfluorohexanesulfonic acid]
# Protocol: as §1
test system,measurement,setting,value
BE3C:CXCL10/IP-10,level (log10),[1]; 6700 nM,0.0075 ± 0.0021
same,level (log10),[1]; 20000 nM,0 ± 0.017
same,level (log10),[2]; 6700 nM,0.018 ± 0.052
same,level (log10),[2]; 20000 nM,0.022 ± 0.033
same,level (log10),[2]; 60000 nM,0.004 ± 0.052
same,level (log10),[3]; 6700 nM,0.004 ± 0.0014
same,level (log10),[3]; 20000 nM,-0.0025 ± 0.0035
same,level (log10),[3]; 60000 nM,0.002 ± 0.0085
same,level (log10),Perfluorobutanoic acid; 6700 nM,0.0065 ± 0.00071
same,level (log10),Perfluorobutanoic acid; 20000 nM,-0.001 ± 0.011
same,level (log10),Perfluorobutanoic acid; 60000 nM,0.0085 ± 0.0078
same,level (log10),[4]; 6700 nM,-0.003 ± 0.0057
same,level (log10),[4]; 20000 nM,0 ± 0.0014
same,level (log10),[4]; 60000 nM,0.005 ± 0.013
same,level (log10),[5]; 6700 nM,-0.0035 ± 0.00071
same,level (log10),[5]; 20000 nM,-0.01 ± 0.0071
same,level (log10),[5]; 60000 nM,-0.0405 ± 0.016
BE3C:CXCL11/I-TAC,level (log10),[1]; 6700 nM,0.011 ± 0.02
same,level (log10),[1]; 20000 nM,-0.002 ± 0.0014
same,level (log10),[2]; 6700 nM,0.0075 ± 0.013
same,level (log10),[2]; 20000 nM,0.0005 ± 0.016
same,level (log10),[2]; 60000 nM,0.0005 ± 0.018
same,level (log10),[3]; 6700 nM,0.0105 ± 0.005
same,level (log10),[3]; 20000 nM,-0.012 ± 0.011
same,level (log10),[3]; 60000 nM,-0.0105 ± 0.005
same,level (log10),Perfluorobutanoic acid; 6700 nM,0.007 ± 0.0099
same,level (log10),Perfluorobutanoic acid; 20000 nM,-0.003 ± 0.0014
same,level (log10),Perfluorobutanoic acid; 60000 nM,-0.0085 ± 0.015
same,level (log10),[4]; 6700 nM,-0.0145 ± 0.0021
same,level (log10),[4]; 20000 nM,-0.015 ± 0.0042
same,level (log10),[4]; 60000 nM,-0.006 ± 0.013
same,level (log10),[5]; 6700 nM,-0.004 ± 0.016
same,level (log10),[5]; 20000 nM,0.004 ± 0.011
same,level (log10),[5]; 60000 nM,0.0035 ± 0.016
BE3C:EGFR,level (log10),[1]; 6700 nM,-0.0015 ± 0.022
same,level (log10),[1]; 20000 nM,-0.006
same,level (log10),[2]; 6700 nM,0.0195 ± 0.0078
same,level (log10),[2]; 20000 nM,0.0085 ± 0.019
same,level (log10),[2]; 60000 nM,0.009 ± 0.028
same,level (log10),[3]; 6700 nM,-0.005 ± 0.0099
same,level (log10),[3]; 20000 nM,-0.018 ± 0.0057
same,level (log10),[3]; 60000 nM,0.003 ± 0.0014
same,level (log10),Perfluorobutanoic acid; 6700 nM,0.002 ± 0.0042
same,level (log10),Perfluorobutanoic acid; 20000 nM,0.005 ± 0.0099
same,level (log10),Perfluorobutanoic acid; 60000 nM,-0.0035 ± 0.0035
same,level (log10),[4]; 6700 nM,0.0115 ± 0.015
same,level (log10),[4]; 20000 nM,0.005 ± 0.021
same,level (log10),[4]; 60000 nM,0.0195 ± 0.077
same,level (log10),[5]; 6700 nM,-0.005
same,level (log10),[5]; 20000 nM,-0.0085 ± 0.0078
same,level (log10),[5]; 60000 nM,0.001 ± 0.0028
BE3C:HLA-DR,level (log10),[1]; 6700 nM,0.021 ± 0.016
same,level (log10),[1]; 20000 nM,0.014
same,level (log10),[2]; 6700 nM,-0.0055 ± 0.0035
same,level (log10),[2]; 20000 nM,-0.0105 ± 0.0035
same,level (log10),[2]; 60000 nM,-0.0215 ± 0.0078
same,level (log10),[3]; 6700 nM,-0.001
same,level (log10),[3]; 20000 nM,-0.0145 ± 0.011
same,level (log10),[3]; 60000 nM,-0.0065 ± 0.0092
same,level (log10),Perfluorobutanoic acid; 6700 nM,-0.0085 ± 0.018
same,level (log10),Perfluorobutanoic acid; 20000 nM,0.007 ± 0.0014
same,level (log10),Perfluorobutanoic acid; 60000 nM,-0.027 ± 0.013
same,level (log10),[4]; 6700 nM,-0.0025 ± 0.00071
same,level (log10),[4]; 20000 nM,-0.02 ± 0.013
same,level (log10),[4]; 60000 nM,0.0085 ± 0.025
same,level (log10),[5]; 6700 nM,-0.014 ± 0.031
same,level (log10),[5]; 20000 nM,-0.0285 ± 0.013
same,level (log10),[5]; 60000 nM,-0.0585 ± 0.028
BE3C:IL-1alpha,level (log10),[1]; 6700 nM,0.001 ± 0.02
same,level (log10),[1]; 20000 nM,0.026 ± 0.0057
same,level (log10),[2]; 6700 nM,-0.0085 ± 0.016
same,level (log10),[2]; 20000 nM,-0.005 ± 0.013
same,level (log10),[2]; 60000 nM,-0.012 ± 0.0085
same,level (log10),[3]; 6700 nM,-0.002 ± 0.0028
same,level (log10),[3]; 20000 nM,-0.0285 ± 0.016
same,level (log10),[3]; 60000 nM,-0.01 ± 0.0014
same,level (log10),Perfluorobutanoic acid; 6700 nM,0.007 ± 0.018
same,level (log10),Perfluorobutanoic acid; 20000 nM,0.0155 ± 0.021
same,level (log10),Perfluorobutanoic acid; 60000 nM,0.0225 ± 0.049
same,level (log10),[4]; 6700 nM,0.0105 ± 0.0092
same,level (log10),[4]; 20000 nM,0.013 ± 0.0099
same,level (log10),[4]; 60000 nM,0.0235 ± 0.063
same,level (log10),[5]; 6700 nM,0.0145 ± 0.042
same,level (log10),[5]; 20000 nM,0.02 ± 0.018
same,level (log10),[5]; 60000 nM,0.0545 ± 0.0021
BF4T:CCL2/MCP-1,level (log10),[1]; 6700 nM,-0.007 ± 0.0028
same,level (log10),[1]; 20000 nM,0.014 ± 0.047
same,level (log10),[2]; 6700 nM,-0.008 ± 0.025
same,level (log10),[2]; 20000 nM,-0.044 ± 0.044
same,level (log10),[2]; 60000 nM,-0.055 ± 0.02
same,level (log10),[3]; 6700 nM,0.005 ± 0.02
same,level (log10),[3]; 20000 nM,-0.013 ± 0.0071
same,level (log10),[3]; 60000 nM,-0.009 ± 0.033
same,level (log10),Perfluorobutanoic acid; 6700 nM,0.004 ± 0.038
same,level (log10),Perfluorobutanoic acid; 20000 nM,0.017 ± 0.0057
same,level (log10),Perfluorobutanoic acid; 60000 nM,0.006 ± 0.0071
same,level (log10),[4]; 6700 nM,0.018 ± 0.027
same,level (log10),[4]; 20000 nM,0.0135 ± 0.053
same,level (log10),[4]; 60000 nM,0.0265 ± 0.043
same,level (log10),[5]; 6700 nM,0.028 ± 0.045
same,level (log10),[5]; 20000 nM,-0.0075 ± 0.013
same,level (log10),[5]; 60000 nM,-0.042 ± 0.037
BF4T:CCL26/Eotaxin-3,level (log10),[1]; 6700 nM,-0.0405 ± 0.019
same,level (log10),[1]; 20000 nM,-0.0355 ± 0.013
same,level (log10),[2]; 6700 nM,-0.0135 ± 0.012
same,level (log10),[2]; 20000 nM,-0.0315 ± 0.0092
same,level (log10),[2]; 60000 nM,-0.17 ± 0.021
same,level (log10),[3]; 6700 nM,0.0175 ± 0.049
same,level (log10),[3]; 20000 nM,-0.0085 ± 0.016
same,level (log10),[3]; 60000 nM,0.037 ± 0.037
same,level (log10),Perfluorobutanoic acid; 6700 nM,-0.0225 ± 0.042
same,level (log10),Perfluorobutanoic acid; 20000 nM,0.0075 ± 0.0021
same,level (log10),Perfluorobutanoic acid; 60000 nM,0.008 ± 0.028
same,level (log10),[4]; 6700 nM,-0.048 ± 0.059
same,level (log10),[4]; 20000 nM,-0.037 ± 0.033
same,level (log10),[4]; 60000 nM,0.0145 ± 0.11
same,level (log10),[5]; 6700 nM,0.003 ± 0.0099
same,level (log10),[5]; 20000 nM,-0.001 ± 0.02
same,level (log10),[5]; 60000 nM,-0.0165 ± 0.037
BF4T:CD54/ICAM-1,level (log10),[1]; 6700 nM,-0.0115 ± 0.021
same,level (log10),[1]; 20000 nM,-0.0095 ± 0.022
same,level (log10),[2]; 6700 nM,-0.003 ± 0.0014
same,level (log10),[2]; 20000 nM,-0.0215 ± 0.019
same,level (log10),[2]; 60000 nM,-0.015 ± 0.0099
same,level (log10),[3]; 6700 nM,0.0025 ± 0.0021
same,level (log10),[3]; 20000 nM,-0.0045 ± 0.00071
same,level (log10),[3]; 60000 nM,0.0075 ± 0.0021
same,level (log10),Perfluorobutanoic acid; 6700 nM,0.007 ± 0.0057
same,level (log10),Perfluorobutanoic acid; 20000 nM,-0.002 ± 0.0071
same,level (log10),Perfluorobutanoic acid; 60000 nM,-0.002 ± 0.018
same,level (log10),[4]; 6700 nM,-0.0025 ± 0.018
same,level (log10),[4]; 20000 nM,-0.007 ± 0.0057
same,level (log10),[4]; 60000 nM,0.012 ± 0.027
same,level (log10),[5]; 6700 nM,0.0045 ± 0.00071
same,level (log10),[5]; 20000 nM,-0.005 ± 0.011
same,level (log10),[5]; 60000 nM,-0.022 ± 0.0099
BF4T:CD90,level (log10),[1]; 6700 nM,0.0025 ± 0.0064
same,level (log10),[1]; 20000 nM,-0.002 ± 0.0071
same,level (log10),[2]; 6700 nM,0.0025 ± 0.00071
same,level (log10),[2]; 20000 nM,-0.001 ± 0.0028
same,level (log10),[2]; 60000 nM,0.013 ± 0.0028
same,level (log10),[3]; 6700 nM,0.015 ± 0.021
same,level (log10),[3]; 20000 nM,0.009 ± 0.0014
same,level (log10),[3]; 60000 nM,0.0065 ± 0.012
same,level (log10),Perfluorobutanoic acid; 6700 nM,-0.001 ± 0.0028
same,level (log10),Perfluorobutanoic acid; 20000 nM,-0.0055 ± 0.00071
same,level (log10),Perfluorobutanoic acid; 60000 nM,-0.0075 ± 0.0078
same,level (log10),[4]; 6700 nM,-0.012 ± 0.0028
same,level (log10),[4]; 20000 nM,-0.0085 ± 0.005
same,level (log10),[4]; 60000 nM,-0.004 ± 0.0028
same,level (log10),[5]; 6700 nM,-0.001 ± 0.014
same,level (log10),[5]; 20000 nM,-0.0115 ± 0.0078
same,level (log10),[5]; 60000 nM,-0.0305 ± 0.0064
